This note sets out measurements from ChEMBL document CHEMBL1201862, “PubChem BioAssay data set” (2004).

Each structure is given as a SMILES string. Active and inactive are the calls of the source.

The target in test [1] is Nuclear receptor subfamily 5 group A member 2 (Homo sapiens, UniProt O00482). The test is classed as functional, cell-based.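 Further: HEK293T cells transfected with LRH-1 and a StAR promoter luciferase reporter; potency for inhibitors that lower LRH-1 driven reporter light.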
Test [2] in a line: StAR promoter reporter inhibition counter-screen, dose response, counter-screen for LRH-1 inverse agonist project, cell-based, luminescence, luciferase reporter (AID 651969). The test is classed as functional. For orientation: The purpose of a counterscreen is to sort out artefacts and off-target activity.
In a further test the target is Steroidogenic factor 1 (Homo sapiens, UniProt Q13285). Description: Counterscreen for inverse agonists of the liver receptor homolog-1 (LRH-1; NR5A2): Luminescence-based cell-based high throughput dose response assay to identify inverse agonists of the Steroidogenic Factor 1 Nuclear Receptor (SF1; NR5A1). The test is classed as functional.
Test [3] is described as follows: AlphaScreen signal interference compounds, dose response, artefact control for ARNT-TACC3 interaction inhibitor project, biochemical, luminescence, cherry-pick (AID 651705).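 Further: AlphaScreen bead proximity signal that flags compounds interfering with the detection technology; potency reflects signal decrease which marks the compound as an assay artifact.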 The test is classed as functional. In general terms: Alpha assays give light when donor and acceptor beads are brought close together.
The nature of test [4]: ARNT/TACC3 interaction disruptors, potency, confirmation, biochemical, AlphaScreen, cherry-picked samples (AID 651703).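 Further: His-tagged ARNT PAS-B domain paired with GST-TACC3 E629A dimer coactivator fragment; potency of inhibitors that break up the complex and lower AlphaScreen signal.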 The test is classed as functional, Homo sapiens.
The target of test [5] is T1, Small ubiquitin-related modifier 1 (Homo sapiens, UniProt P63165). Description: inhibitors of SUMO1 partner interactions, dose response, biochemical, FRET (AID 624383). The note with it: read-out: IC50_Mean. The test is classed as functional.
Test [6] deals with T2, Fatty acid synthase (Homo sapiens, UniProt P49327). As to the kind of experiment: FAS thioesterase domain inhibitors, dose response, biochemical, endpoint fluorescence intensity, uHTS hits (AID 624327).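 Further: fluorescence from hydrolysis of an O-methyl fluorescein acyl ester substrate by the enzyme.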 The test is classed as functional.
The target in the next test is T3, Caspase-6 (Homo sapiens, UniProt P55212).
T3 sequence (P55212 whole entry): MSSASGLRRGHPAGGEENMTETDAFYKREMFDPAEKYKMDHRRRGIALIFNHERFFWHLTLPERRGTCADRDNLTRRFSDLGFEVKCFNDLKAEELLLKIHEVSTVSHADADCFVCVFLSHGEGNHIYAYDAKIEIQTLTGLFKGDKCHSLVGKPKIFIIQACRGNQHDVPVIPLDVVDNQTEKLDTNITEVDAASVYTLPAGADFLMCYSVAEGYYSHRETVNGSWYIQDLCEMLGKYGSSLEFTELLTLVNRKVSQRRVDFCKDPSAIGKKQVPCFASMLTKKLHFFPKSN
As to the kind of experiment: human caspase-6 inhibitors, dose response, biochemical, VEID-R110 fluorescence, cherry-pick (AID 720632).

Test [7] has as its target T1, Small ubiquitin-related modifier 1. As to the kind of experiment: inhibitors of SUMO1 peptide binding, dose response, biochemical, fluorescence polarization, uHTS hits (AID 624382). The test is classed as functional. To be noted: read-out: IC50_Mean.
Test [8] concerns the target T4, Histone-lysine N-methyltransferase NSD2 (Homo sapiens, UniProt O96028).
T4 sequence (O96028 whole entry): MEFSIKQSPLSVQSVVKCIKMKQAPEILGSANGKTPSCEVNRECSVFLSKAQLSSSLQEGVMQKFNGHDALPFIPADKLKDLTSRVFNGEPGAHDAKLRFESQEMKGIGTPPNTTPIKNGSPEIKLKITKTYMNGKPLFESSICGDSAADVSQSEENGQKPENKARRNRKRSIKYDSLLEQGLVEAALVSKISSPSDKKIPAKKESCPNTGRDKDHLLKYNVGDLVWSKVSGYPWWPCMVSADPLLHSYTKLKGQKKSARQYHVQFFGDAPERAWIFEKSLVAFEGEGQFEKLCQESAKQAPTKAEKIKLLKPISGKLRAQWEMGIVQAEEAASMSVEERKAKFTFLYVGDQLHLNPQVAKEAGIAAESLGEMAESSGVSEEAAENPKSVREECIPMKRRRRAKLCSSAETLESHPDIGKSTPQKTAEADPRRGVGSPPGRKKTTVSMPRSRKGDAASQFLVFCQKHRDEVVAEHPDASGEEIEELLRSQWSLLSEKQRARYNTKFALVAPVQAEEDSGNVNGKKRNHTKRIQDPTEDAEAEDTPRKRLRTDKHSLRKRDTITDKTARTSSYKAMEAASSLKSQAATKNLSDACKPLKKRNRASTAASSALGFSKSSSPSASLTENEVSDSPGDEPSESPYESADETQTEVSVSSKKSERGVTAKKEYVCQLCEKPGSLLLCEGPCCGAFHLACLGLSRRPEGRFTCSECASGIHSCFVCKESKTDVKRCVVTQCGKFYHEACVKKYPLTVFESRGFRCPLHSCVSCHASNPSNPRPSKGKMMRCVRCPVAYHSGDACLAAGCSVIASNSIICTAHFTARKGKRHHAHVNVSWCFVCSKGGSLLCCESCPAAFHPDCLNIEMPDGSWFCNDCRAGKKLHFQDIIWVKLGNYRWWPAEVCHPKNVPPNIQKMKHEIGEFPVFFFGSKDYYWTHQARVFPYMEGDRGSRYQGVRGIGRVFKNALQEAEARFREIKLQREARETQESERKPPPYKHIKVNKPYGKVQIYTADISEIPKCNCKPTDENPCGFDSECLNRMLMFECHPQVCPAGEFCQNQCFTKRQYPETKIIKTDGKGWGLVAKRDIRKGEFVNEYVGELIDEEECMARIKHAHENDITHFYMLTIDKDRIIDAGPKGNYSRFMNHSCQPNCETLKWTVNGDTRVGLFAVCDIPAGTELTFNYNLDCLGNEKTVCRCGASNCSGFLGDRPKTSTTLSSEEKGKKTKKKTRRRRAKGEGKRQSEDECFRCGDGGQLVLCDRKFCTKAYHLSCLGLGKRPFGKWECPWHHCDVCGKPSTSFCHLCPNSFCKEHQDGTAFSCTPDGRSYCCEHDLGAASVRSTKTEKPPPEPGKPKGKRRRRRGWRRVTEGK
The test is classed as biochemical.

For test [9], the target named is T2, Fatty acid synthase. As to the kind of experiment: FAS thioesterase domain inhibitors, dose response, biochemical, kinetic fluorescence intensity (AID 624326).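 Further: rate of fluorescence rise from hydrolysis of a fluorogenic O-methyl fluorescein ester substrate.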 The test is classed as functional.
Test [10] deals with Low molecular weight phosphotyrosine protein phosphatase (Homo sapiens, UniProt P24666). The test is classed as functional. The note with it: read-out: IC50_Mean.
The target of test [11] is T5, Dual specificity protein phosphatase 6 (Rattus norvegicus, UniProt Q64346).
T5 sequence (Q64346 whole entry): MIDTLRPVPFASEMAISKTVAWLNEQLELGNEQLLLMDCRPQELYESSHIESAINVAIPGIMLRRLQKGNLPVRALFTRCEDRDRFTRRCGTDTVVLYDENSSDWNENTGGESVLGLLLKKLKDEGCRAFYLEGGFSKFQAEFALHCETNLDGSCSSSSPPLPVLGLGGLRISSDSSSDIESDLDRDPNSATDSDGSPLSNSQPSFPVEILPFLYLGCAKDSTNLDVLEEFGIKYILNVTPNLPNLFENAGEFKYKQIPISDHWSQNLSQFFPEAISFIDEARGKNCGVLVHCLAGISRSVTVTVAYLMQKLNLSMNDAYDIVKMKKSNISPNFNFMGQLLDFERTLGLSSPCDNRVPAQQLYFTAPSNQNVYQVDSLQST
As to the kind of experiment: MKP-3 phosphatase inhibitors, primary screen, biochemical, rat enzyme, in vitro (AID 425).

Test [12] has as its target T6, Interleukin-8 (Homo sapiens, UniProt P10145).
T6 sequence (P10145 whole entry): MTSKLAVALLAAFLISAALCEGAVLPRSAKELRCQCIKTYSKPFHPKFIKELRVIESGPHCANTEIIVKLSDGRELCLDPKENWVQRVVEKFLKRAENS
As to the kind of experiment: Dose Response confirmation of uHTS small molecule hits for cystic fibrosis induced NFkb Inhibitors in a TNFa-induced IL8 counterscreen. The test is classed as functional. To be noted: read-out: IC50_Mean.

Test [13] deals with T6, Interleukin-8. As to the kind of experiment: Dose Response confirmation of uHTS small molecule hits for cystic fibrosis induced NFkb Inhibitors in a PAF-induced IL8 counterscreen. To be noted: read-out: IC50_Mean. The test is classed as functional.
The nature of test [14]: cytotoxicity toward NIH3T3 fibroblasts, dose response, counter-screen, cell-based, ATP luminescence, mouse fibroblasts (AID 2010).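 Further: cells exposed to compound for about 90 hours before reading.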 The test is classed as functional.
The target of another test is T7, X-box-binding protein 1 (Homo sapiens, UniProt P17861).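 Further: confirmatory dose-response counter-screen serving a CHOP assay.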
T7 sequence (P17861 whole entry): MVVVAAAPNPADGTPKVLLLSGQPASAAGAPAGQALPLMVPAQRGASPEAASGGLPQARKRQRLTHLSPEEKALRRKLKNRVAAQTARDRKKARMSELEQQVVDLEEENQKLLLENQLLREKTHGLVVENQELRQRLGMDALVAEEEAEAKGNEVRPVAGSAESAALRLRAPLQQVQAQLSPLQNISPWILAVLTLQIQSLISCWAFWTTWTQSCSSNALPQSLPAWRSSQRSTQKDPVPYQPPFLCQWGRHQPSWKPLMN
The test is classed as functional, Cricetulus griseus.

Test [15] in a line: inhibitors of intracellular T. cruzi replication, confirmation, NIH3T3 host cells, beta-gal luminescence (AID 2044).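 Further: intracellular parasites grown in NIH/3T3 mouse fibroblasts as host cells; luminescent beta-galactosidase reporter signal from transgenic T. cruzi replicating inside host cells; inhibitors lower the luminescence signal.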 The test is classed as functional, cell-based.
The target in a further test is Melanocortin receptor 4 (Homo sapiens, UniProt P32245). The test is classed as functional, cell-based.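 Further: Cell-based assay with luminescence read-out, confirmatory dose-response testing for agonist activity of biased ligands at MC4R; human U2OS cells with tagged receptor and beta-arrestin; potency of agonists that increase receptor coupling to beta-arrestin.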
Test [16] deals with T8, Heat shock factor protein 1 (Mus musculus, UniProt P38532).
T8 sequence (P38532 whole entry): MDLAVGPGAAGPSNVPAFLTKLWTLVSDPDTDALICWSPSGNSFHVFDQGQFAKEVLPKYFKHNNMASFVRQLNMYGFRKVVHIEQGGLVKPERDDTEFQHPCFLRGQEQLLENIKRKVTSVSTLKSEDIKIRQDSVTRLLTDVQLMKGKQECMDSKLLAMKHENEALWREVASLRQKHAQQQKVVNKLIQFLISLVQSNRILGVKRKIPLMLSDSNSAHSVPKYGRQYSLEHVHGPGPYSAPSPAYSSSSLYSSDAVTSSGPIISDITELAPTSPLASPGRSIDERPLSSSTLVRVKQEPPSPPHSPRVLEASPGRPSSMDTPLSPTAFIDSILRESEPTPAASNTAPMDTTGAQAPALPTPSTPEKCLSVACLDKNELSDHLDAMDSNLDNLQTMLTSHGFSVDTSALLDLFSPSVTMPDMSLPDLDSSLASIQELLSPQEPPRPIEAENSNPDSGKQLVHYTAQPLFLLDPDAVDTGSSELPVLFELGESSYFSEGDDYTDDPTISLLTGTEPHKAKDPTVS
Description: HSF1 potentiators in luciferase reporter cells, confirmation, cell-based, NIH3T3, luminescence, dose retest (AID 435004).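 Further: stress induced by proteasome inhibitor MG132 added 30 min after compound; luciferase reporter driven by HSF1 response element in NIH3T3 cells; actives raise luminescence as potentiators of the MG132 stress response.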 The test is classed as functional. On the technique in general: Reporter assays use an easily measured gene product as a stand-in for the process of interest.

Test [17] can be described thus: miR-122 activators in hepatoma reporter cells, dose response, cell-based, Huh7 psiCHECK-miR122, Renilla luciferase, cherry-picked (AID 651956).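 Further: huh7 hepatoma cells stably carrying a psiCHECK-2 miR-122 sensor plasmid; renilla luciferase signal reporting endogenous miR-122 activity after 48 h compound exposure.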 The test is classed as functional.
For another test, the target named is Paired box protein Pax-8 (Homo sapiens, UniProt Q06710). As to the kind of experiment: inhibitors of PAX8-driven TPO luciferase reporter, dose response, RMG-I cells, cherry-pick (AID 687027).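 Further: luciferase reporter driven by Pax8 target thyroperoxidase promoter measured by SteadyGlo luminescence.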 The test is classed as functional, cell-based.
Paired box protein Pax-8, sequence (Q06710 whole entry): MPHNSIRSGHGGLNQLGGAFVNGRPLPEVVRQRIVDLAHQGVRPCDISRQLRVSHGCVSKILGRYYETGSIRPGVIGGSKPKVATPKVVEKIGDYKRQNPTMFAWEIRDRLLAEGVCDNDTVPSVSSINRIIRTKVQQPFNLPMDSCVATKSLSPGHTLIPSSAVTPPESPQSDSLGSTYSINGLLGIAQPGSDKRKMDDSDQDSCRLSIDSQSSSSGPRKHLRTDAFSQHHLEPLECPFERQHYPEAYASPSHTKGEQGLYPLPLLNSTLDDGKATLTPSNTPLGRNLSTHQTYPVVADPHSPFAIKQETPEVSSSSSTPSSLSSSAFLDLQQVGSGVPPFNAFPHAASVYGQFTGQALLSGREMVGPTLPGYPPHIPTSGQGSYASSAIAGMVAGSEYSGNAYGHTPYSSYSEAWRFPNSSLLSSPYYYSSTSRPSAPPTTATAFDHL

T1 sequence (P63165 whole entry, the tested form may be a part): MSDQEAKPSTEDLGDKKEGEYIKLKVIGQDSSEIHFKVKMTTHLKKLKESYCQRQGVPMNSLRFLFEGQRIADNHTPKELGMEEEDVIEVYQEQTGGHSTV
T2 sequence (P49327 whole entry, the tested form may be a part): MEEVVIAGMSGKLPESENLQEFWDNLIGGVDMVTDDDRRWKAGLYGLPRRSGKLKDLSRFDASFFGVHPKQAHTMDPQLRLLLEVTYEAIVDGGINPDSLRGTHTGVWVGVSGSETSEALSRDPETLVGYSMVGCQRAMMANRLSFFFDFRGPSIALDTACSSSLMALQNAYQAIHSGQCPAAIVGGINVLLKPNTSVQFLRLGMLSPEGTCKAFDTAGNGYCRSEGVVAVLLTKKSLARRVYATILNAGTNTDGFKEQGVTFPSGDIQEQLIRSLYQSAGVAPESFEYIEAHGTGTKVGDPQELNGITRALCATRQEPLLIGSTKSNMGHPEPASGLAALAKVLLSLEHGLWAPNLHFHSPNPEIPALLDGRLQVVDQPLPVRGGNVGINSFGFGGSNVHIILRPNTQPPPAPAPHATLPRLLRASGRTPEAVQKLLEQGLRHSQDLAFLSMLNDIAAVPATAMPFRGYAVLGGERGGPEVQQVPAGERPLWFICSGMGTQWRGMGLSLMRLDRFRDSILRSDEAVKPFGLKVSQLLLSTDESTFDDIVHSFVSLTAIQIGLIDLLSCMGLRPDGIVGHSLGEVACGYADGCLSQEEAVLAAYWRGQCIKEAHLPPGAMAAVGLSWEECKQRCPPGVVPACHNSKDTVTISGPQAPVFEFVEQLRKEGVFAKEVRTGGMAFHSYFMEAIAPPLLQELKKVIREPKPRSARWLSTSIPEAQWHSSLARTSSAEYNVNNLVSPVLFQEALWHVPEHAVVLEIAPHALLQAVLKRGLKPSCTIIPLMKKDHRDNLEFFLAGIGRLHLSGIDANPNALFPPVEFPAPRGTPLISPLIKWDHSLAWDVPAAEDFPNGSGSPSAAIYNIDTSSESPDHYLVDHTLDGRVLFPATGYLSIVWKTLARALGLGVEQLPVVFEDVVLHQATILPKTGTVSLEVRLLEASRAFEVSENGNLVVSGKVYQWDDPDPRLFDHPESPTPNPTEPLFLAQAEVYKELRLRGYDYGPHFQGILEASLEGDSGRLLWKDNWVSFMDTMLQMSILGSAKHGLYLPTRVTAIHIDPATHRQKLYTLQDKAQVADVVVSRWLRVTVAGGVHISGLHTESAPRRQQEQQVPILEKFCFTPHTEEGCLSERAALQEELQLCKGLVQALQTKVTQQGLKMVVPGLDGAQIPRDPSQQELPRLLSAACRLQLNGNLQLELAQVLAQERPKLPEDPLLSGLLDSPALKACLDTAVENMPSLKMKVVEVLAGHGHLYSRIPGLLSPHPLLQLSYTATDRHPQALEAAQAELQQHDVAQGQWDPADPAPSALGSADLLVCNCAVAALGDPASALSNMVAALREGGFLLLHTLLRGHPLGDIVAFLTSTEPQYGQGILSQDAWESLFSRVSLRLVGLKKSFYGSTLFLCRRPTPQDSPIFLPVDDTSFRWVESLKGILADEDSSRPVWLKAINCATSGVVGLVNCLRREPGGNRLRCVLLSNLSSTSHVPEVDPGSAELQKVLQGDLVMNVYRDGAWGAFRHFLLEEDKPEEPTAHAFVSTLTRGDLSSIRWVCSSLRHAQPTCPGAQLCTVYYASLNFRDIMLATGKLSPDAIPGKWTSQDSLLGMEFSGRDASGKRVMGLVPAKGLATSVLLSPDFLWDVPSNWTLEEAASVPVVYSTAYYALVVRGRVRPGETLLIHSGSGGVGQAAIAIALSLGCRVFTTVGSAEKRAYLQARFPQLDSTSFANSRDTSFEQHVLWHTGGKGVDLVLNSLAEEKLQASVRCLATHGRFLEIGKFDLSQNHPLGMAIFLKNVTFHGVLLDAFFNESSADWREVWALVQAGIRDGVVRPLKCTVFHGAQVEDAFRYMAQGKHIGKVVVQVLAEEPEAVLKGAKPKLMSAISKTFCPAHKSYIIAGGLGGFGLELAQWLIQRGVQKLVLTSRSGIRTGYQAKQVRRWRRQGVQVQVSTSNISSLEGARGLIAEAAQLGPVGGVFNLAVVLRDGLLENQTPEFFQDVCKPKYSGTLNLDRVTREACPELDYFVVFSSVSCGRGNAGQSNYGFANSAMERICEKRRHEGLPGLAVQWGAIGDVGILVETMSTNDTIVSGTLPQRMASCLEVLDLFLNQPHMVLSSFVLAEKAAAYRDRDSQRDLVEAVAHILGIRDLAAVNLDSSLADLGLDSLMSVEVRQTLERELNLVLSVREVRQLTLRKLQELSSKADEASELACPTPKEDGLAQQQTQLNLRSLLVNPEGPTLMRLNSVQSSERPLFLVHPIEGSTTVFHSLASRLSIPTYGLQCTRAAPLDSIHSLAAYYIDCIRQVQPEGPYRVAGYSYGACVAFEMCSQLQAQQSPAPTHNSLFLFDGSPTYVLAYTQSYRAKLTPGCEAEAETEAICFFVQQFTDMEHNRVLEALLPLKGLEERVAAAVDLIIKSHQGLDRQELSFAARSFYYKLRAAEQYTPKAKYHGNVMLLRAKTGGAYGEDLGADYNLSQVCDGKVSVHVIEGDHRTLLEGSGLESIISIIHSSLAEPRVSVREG
Steroidogenic factor 1, sequence (Q13285 whole entry): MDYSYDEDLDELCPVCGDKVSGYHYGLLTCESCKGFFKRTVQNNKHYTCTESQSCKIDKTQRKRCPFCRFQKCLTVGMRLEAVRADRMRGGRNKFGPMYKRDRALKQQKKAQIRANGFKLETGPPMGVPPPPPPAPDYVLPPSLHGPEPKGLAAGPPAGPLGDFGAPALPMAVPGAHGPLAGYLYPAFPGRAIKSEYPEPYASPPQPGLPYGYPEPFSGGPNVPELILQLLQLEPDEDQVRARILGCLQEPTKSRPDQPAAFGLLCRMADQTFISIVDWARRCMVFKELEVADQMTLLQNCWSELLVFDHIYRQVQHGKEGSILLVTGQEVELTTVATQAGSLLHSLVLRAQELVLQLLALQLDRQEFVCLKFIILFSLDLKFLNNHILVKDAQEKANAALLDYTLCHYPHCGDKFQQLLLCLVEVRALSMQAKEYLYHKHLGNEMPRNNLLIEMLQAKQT
Low molecular weight phosphotyrosine protein phosphatase, sequence (P24666 whole entry): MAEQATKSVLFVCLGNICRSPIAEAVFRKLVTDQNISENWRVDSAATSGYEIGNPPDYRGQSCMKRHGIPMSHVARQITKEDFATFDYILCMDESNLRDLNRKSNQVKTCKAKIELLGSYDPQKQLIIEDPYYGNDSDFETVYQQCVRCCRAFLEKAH
Nuclear receptor subfamily 5 group A member 2, sequence (O00482 whole entry): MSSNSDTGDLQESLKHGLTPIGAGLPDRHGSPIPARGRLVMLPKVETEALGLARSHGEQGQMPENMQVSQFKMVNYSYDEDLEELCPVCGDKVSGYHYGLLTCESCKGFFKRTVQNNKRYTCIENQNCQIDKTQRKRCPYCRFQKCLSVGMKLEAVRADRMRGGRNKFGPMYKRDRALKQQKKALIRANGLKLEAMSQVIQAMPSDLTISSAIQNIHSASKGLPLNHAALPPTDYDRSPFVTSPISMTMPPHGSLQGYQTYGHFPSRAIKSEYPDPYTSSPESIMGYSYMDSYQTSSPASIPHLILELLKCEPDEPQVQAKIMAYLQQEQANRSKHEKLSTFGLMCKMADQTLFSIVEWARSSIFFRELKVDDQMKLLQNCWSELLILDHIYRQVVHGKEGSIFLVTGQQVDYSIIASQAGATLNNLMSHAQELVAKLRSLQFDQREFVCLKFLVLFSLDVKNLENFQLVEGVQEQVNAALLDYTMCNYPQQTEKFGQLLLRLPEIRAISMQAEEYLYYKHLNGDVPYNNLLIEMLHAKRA
Melanocortin receptor 4, sequence (P32245 whole entry): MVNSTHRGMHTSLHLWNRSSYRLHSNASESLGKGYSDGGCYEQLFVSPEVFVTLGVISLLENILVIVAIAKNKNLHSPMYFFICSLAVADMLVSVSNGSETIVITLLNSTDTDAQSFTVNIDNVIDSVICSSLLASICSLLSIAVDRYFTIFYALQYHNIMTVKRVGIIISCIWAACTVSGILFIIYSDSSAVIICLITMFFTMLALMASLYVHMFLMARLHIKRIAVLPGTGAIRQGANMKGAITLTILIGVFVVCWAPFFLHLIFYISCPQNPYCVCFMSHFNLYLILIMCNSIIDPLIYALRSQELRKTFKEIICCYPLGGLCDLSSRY

Take `COc1ccc(CC(NC(C)=O)C(=O)NC2CCN(c3nnnn3-c3ccccc3)CC2)cc1` (centres undefined): the IC50 in test [1] was 16.5 µM (inactive); in [2] it was 35.9 µM (inactive); at Steroidogenic factor 1, 11.3 µM (inactive).
Take `O=C(CSc1nc(=O)n2cc(Cl)ccc2n1)Nc1ccc2c(c1)OCCO2`: the IC50 (in test [1]; in test [2]; at Steroidogenic factor 1) was 35.9 µM (inactive) throughout.
Usually AC50 stands for the midpoint of the concentration-response curve, whichever way the signal moves. `O=C(NCCCn1ccnc1)Nc1ccc(Cl)c(Cl)c1`: in [3], the AC50 was 99 µM (active).
Regarding `N#Cc1cc2ccc(N3CCOCC3)cc2cc1C#N`, the AC50 in test [4] is 116 µM (active); on Caspase-6, 29.9 µM (active); in test [8], 3.05 µM (active). Moreover, the IC50 in test [5] is 100 µM (inactive); at Fatty acid synthase [6], 5.9 µM (active); in [7], > 66.6 µM (inactive); on Fatty acid synthase [9], 4.31 µM (active).
`CC(Nc1nc(-c2ccccc2F)nc2ccccc12)c1ccccc1` (centres undefined): the IC50 in [10] was 5.48 µM (active).
Turning to `O=C(O)c1cnc2ccc(S(=O)(=O)N3CCN(c4ccc(F)cc4)CC3)cc2c1O`, the IC50 is 50.6 µM (inactive) in test [10] and > 10 µM (not active) in test [11].
In the case of `COc1ccc(-c2csc(NC3OC(=O)c4c3ccc(OC)c4OC)n2)cc1OC` (centres undefined), the values for the IC50 on Interleukin-8 [12] and at Interleukin-8 [13] were 0.969 µM (active) and 1.37 µM (active), respectively.
Broadly, the EC50 is the concentration needed to bring the measured effect to its halfway point. On to `Cc1ccc(C2=NN(C(=O)c3cccs3)C(c3ccccc3O)C2)cc1` (centres undefined), for which the EC50 is > 60 µM (not active) in test [14], 2.49 µM (active) in test [15], > 89.2 µM (inactive) on Melanocortin receptor 4 and > 260 µM (inactive) in [16]. Moreover, the “Absolute IC50 (XBP1)” value on X-box-binding protein 1 was 10 µM.
With `COc1cc(-c2nnc(NC(=O)CS(=O)(=O)c3ccc(F)cc3)o2)cc(OC)c1OC`, the AC50 in test [3] is 102 µM (active).
As for `COc1ccc(C#Cc2ccc3c(c2)O[C@H](CN(C)C(=O)CN2CCOCC2)[C@H](C)CN([C@@H](C)CO)S3(=O)=O)cc1`, the AC50 in [17] is 29.9 µM (active).
On to `C=C1C(=O)O[C@@H]2[C@H]1CC[C@H](C)[C@]1(O)CCC(=O)[C@@]21C` [CORONOPILIN], for which the IC50 on Interleukin-8 [12] was 40.5 µM (inactive); at Interleukin-8 [13], 7.49 µM (active). The concentration at half-maximal activity (AC50) at Paired box protein Pax-8 was 5.43 µM (active).
